Data set [1] is described as follows: Caco-2 trans-well apparent permeability assay. It is filed as in vitro ADME. The following applies: human, pH 7.4, Caco-2, 5 µM. On the procedure:
To initially characterize the permeability of BKIs 1294, 1369, and 1318, the software MedChem Designer (Simulations +, Lancaster, CA) was used to predict the Peff. The in vitro apparent permeability (Papp) was carried out by Absorption Systems LP (Exton, PA) with a Caco-2 trans-well assay. Caco-2 cells (clone C2BBe1) were obtained from American Type Culture Collection (Manassas, VA) were grown to confluence on collagen-coated, microporous membranes in 12-well assay plates. The permeability assay buffer was Hanks’ balanced salt solution (HBSS) containing 10 mM HEPES and 15 mM glucose at a pH of 7.4. The buffer in the receiver chamber also contained 1% bovine serum albumin. The dosing solution concentration was 5 µM BKI in assay buffer, and the cell monolayers were dosed on the apical side (A?B) or basolateral side (B?A) and incubated at 37°C with 5% CO2 in a humidified incubator. After 120 minutes, samples were taken from the donor and receiver chambers in duplicate. The Papp was calculated with equation (1) and the percent recovery with equation (2).
Papp = (dCr/dt) × Vr/(A × CA) (1)
Percent Recovery = 100 × ((Vr × Cr^final) + (Vd × Cd^final))/(Vd × […]) (2)
where dCr/dt is the slope of the cumulative concentration in the receiver compartment versus time in µM s^-1; Vr is the volume of the receiver compartment in cm^3; Vd is the volume of the donor compartment in cm^3; A is the area of the insert (1.13 cm^2 for 12-well); CA is the average of the nominal dosing concentration and the measured 120 minute donor concentration in µM; CN is the nominal concentration of the dosing solution in µM; Cr^final is the cumulative receiver concentration in µM at the end of the incubation period; Cd^final is the concentration of the donor in µM at the end of the incubation period.
(§1) To ensure no damage was inflicted to the cell monolayers during the flux period, lucifer yellow flux was also measured post-experimentally for each monolayer. To determine whether BKIs 1294, 1369, and 1318 were substrates of P-gp in vitro, P-gp efflux was characterized using the Caco-2 permeability assay protocol with a few modifications. The dosing solution concentration was 5 μM of BKI in the assay buffer +/- 1 μM valspodar. Cells were first pre-incubated for 30 minutes with HBSS containing +/- 1 μM valspodar. Cell monolayers were dosed on the apical side (A?B) or basolateral side (B?A), and incubated at 37°C with 5% CO2 in a humidified incubator. Samples were taken from the donor and receiver chambers at 120 minutes. Each determination was performed in duplicate.

The target in data set [2] is T1, P-gp (Homo sapiens, UniProt P08183).
T1 construct: endogenous in cells; host or cells: Caco-2 cells (clone C2BBe1, ATCC); assay run by Absorption Systems LP
T1 sequence (P08183 whole entry): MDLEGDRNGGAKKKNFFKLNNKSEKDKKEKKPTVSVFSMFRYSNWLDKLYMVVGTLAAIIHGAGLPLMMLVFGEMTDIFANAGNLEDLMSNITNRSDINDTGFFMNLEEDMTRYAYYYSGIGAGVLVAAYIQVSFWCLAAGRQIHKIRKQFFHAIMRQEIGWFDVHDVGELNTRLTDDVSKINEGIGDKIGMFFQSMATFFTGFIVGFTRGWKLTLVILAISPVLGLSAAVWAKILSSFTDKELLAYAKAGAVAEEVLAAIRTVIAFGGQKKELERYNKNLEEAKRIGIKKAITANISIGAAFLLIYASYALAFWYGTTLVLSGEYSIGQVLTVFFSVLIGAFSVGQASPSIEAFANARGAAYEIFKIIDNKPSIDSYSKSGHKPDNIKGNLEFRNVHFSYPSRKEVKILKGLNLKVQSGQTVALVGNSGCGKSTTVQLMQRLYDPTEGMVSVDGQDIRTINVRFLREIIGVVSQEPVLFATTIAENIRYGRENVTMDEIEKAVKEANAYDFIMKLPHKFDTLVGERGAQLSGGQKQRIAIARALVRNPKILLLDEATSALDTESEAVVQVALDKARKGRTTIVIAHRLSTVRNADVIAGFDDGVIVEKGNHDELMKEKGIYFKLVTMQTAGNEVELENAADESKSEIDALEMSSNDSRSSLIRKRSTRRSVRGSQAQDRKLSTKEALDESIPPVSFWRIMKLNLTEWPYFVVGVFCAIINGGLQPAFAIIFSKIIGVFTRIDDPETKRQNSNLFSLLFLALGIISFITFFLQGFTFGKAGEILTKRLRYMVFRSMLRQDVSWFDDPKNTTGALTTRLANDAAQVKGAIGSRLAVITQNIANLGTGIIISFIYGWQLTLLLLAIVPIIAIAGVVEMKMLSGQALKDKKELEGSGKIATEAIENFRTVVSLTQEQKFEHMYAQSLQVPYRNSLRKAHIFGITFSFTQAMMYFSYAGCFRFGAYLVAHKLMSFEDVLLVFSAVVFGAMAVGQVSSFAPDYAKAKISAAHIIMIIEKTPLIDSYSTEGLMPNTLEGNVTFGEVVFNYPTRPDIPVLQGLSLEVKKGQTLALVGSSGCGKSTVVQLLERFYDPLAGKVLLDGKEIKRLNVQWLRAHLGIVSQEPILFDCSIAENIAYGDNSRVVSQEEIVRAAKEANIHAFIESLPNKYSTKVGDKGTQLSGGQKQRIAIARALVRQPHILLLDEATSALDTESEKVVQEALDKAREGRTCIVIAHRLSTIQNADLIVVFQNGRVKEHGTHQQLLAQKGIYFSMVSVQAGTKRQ
In words: Caco-2 P-gp efflux assay +/- valspodar. The settings on record: for P-gp Substrate Classification: Caco-2. It is filed as in vitro ADME.
From the text: Given the well-known role of P-gp in the efflux of many diverse drugs, the adenosine triphosphate–binding cassette (ABC) transporter was specifically chosen for initial studies, to identify the transporter responsible for BKI1318’s relatively low Papp. A Caco-2 system with overexpression of P-gp was used to verify the role of P-gp in BKI1318 transport (Supplementary Table 2). […] It should be noted that this experiment characterized the importance of P-gp with a single concentration of BKI1318. The kinetics of BKI1318 transport mediated by P-gp are still unknown, and it is not clear how the fraction of absorption mediated by P-gp transport will change with different concentrations of BKI1318.
as §1
Background: Passage across Caco-2 layers is used to estimate intestinal permeability.

Data set [3] is described as follows: Mouse oral plasma pharmacokinetics with or without elacridar. It is filed as in vivo, mice. The following applies: for AUC(0-inf) / Cmax / Tmax: mouse, plasma, po, mouse plasma, oral, 1369 60 mg/kg, 1318 50 mg/kg. On the procedure:
Mouse oral pharmacokinetic (PK) studies were performed as previously described^1. Briefly, blood samples were taken by tail bleeding into heparinized tubes at designated time points and centrifuged to obtain plasma. The samples were frozen and stored at -20°C until extraction and analysis. PK calculations of Tmax, Cmax, AUC, oral clearance, and half-life were performed using Pharsight Phoenix WinNonlin software (Certara, St. Louis, MO).

Data set [4] has as its system C. parvum. Nature of the data set: IFN-γ KO mouse model of Cryptosporidium infection. It is filed as in vivo, mice. The settings on record: for Effect of elacridar coadministration on in vivo efficacy: IFN-γ KO mice, once daily for 5 days. On the procedure: Efficacy in female IFN-γ KO mice (B6.129S7-Ifngtm1Ts/J; Jackson Laboratories) aged 8–10 weeks was evaluated as previously described. Beginning on day 6 after infection, mice were dosed with 30 mg/kg BKI1318 suspended in 0.2 mL of vehicle, 15 mg/kg elacridar in 0.1 mL of vehicle followed 15 minutes later by 30 mg/kg BKI1318 in 0.1 mL of vehicle, or 0.2 mL of vehicle only once daily for 5 days. Fecal specimens were collected daily from each group and weighed. Each fecal sample was checked for luminescence on the day of collection, and the number of relative light units was determined and normalized to fecal sample weights.

Data set [5] relates to Cryptosporidium. On the set-up: method as in PMID 28329187. The following applies: cited from earlier work.
Where [6] appears, read: mice, 50 mg/kg oral, 30 mg/kg elacridar, P < .05.
Where [7] appears, read: 30 mg/kg elacridar 15 minutes before, read-out: AUC0-inf w/ Elacridar.
Setting [8] is: 30 mg/kg elacridar 15 minutes before, read-out: Cmax w/ Elacridar.
[9] abbreviates: 30 mg/kg elacridar 15 minutes before, read-out: Tmax w/ Elacridar.

The structures appear in SMILES notation. “Also recorded” adds a separate entry of the source. Read-outs that look alike come from different tables or passages of the source.

The efflux ratio is a quotient of directional permeabilities that is used to spot active efflux. One may read the Papp A→B as the apparent permeability from the apical to the basolateral side of a cell layer. The Papp B→A is the apparent permeability from the basolateral to the apical side of a cell layer.

On to `CCOc1ccc2cc(-c3nn(CC4CCNCC4)c4ncnc(N)c34)ccc2n1` [BKI1318], for which the efflux ratio at 120 min, 5 µM was found to be 69 in data set [1] and 19 in data set [2] (human, pH 7.4, Caco-2 with overexpression of P-gp, 5 μM, no inhibitor). The apical-to-basolateral permeability (Papp A→B) at 120 min, 5 µM in data set [1] was found to be 0.29 ×10⁻⁶ cm/s. The Papp B→A at 120 min, 5 µM in data set [1] worked out at 20.3 ×10⁻⁶ cm/s. Also, the “P-gp Substrate Classification” value in data set [2] is given as “Positive”. Also, in data set [3] (mice), the “Oral clearance with elacridar, fold greater than observed for BKI1369” value was determined as 5 fold. Moreover, in data set [3] (mice, 50 mg/kg oral, 30 mg/kg elacridar), the “Oral clearance (clearance/bioavailability) with elacridar coadministration” value is 207 mL/h. Further, the “Increase of plasma AUC0–∞ by elacridar coadministration” value in data set [3] (setting [6]) is on record as “approximately 2 fold”. In data set [3] (setting [6]), the “Increase of plasma Cmax by elacridar coadministration” value was “approximately 2 fold”. For the same compound, the AUC(0-inf) in data set [3] (setting [7]) was 12 ± 1.6 µM·h; in data set [3] (alone, read-out: AUC0-inf) it was 6.6 ± 1.7 µM·h. For the same compound, the Cmax in data set [3] (setting [8]) was 1800 nM; in data set [3] (alone, read-out: Cmax), 1000 nM. Besides, the Tmax was 2 h in data set [3] (setting [9]) and 2.3 h in data set [3] (alone, read-out: Tmax). In data set [4] (60 mg/kg once daily for 5 days, without elacridar), the “Reduction in C. parvum oocyst excretion” value was < 1 log. Moreover, in data set [4], the “Effect of elacridar coadministration on in vivo efficacy” value was “increased the level by which BKI1318 reduced the Cryptosporidium burden; also recorded: improvement in efficacy”. Also, in data set [5], the “Efficacy in neonatal mouse model of Cryptosporidium infection” value is reported as “efficacious”.
As for `CCOc1ccc2cc(-c3nn(CC4CCN(C)CC4)c4ncnc(N)c34)ccc2n1` [BKI1369], the Papp A→B at 120 min, 5 µM in data set [1] turned out to be 12.4 ×10⁻⁶ cm/s. Besides, the Papp B→A at 120 min, 5 µM in data set [1] was determined as 32.7 ×10⁻⁶ cm/s. Moreover, the “P-gp Substrate Classification” value in data set [2] is on record as “Negative”. For the same compound, the “Change in plasma pharmacokinetics when elacridar administered before” value in data set [3] (mice, 60 mg/kg oral, 30 mg/kg elacridar) is recorded as “not a significant change; also recorded: not significantly different”. Moreover, the AUC(0-inf) in data set [3] (setting [7]) is 91.4 ± 5 µM·h; in data set [3] (alone, read-out: AUC0-inf), 75.6 ± 8.9 µM·h. Also, the Cmax in data set [3] (setting [8]) stood at 4100 ± 300 nM; in data set [3] (alone, read-out: Cmax) it was 4200 nM. Moreover, the Tmax in data set [3] (setting [9]) came to 4 ± 1.6 h; in data set [3] (alone, read-out: Tmax), 2 h. Moreover, in data set [4], the “Effect of elacridar coadministration on in vivo efficacy” value is recorded as “no effect; also recorded: did not affect”. Further, in data set [5], the “Efficacy in neonatal mouse model of Cryptosporidium infection” value is “efficacious”.

Source of the values: article PMC6736360, “P-Glycoprotein–Mediated Efflux Reduces the In Vivo Efficacy of a Therapeutic Targeting the Gastrointestinal Parasite Cryptosporidium” (The Journal of Infectious Diseases, 2019).
